# According to US4937346A, “Phenyl-azacykloalkanes” (Carlsson; Per Arvid Emil, priority 1979, dated 1990):
# Like-named read-outs stand apart in the source and are kept apart here.
# Legend:
# [1] = test system: postsynaptic dopamine receptor; experiment: Gross behavioral observations for postsynaptic dopamine receptor activity; type: in vivo, rat; details: gross behavioural observations, any dose tested
# Text: (§1) Rats (150-300 g) pretreated with reserpine were given the compounds under evaluation. Gross behavioral observations (changes in motility, stereotypies etc.) were made in order to evaluate possible postsynaptic dopamine receptor activity. Subsequent administration of NSD 1015, decapitation, brain dissection (corpora striate and the limbic fore-brain), homogenization, centrifugation, ion-exchange chromatography and spectrofluorimetric measurements (all as described in detail by Wikstrom et al., in J. Med. Chem. 21, 864-867, 1978, and references cited therein), gave the actual Dopa levels. Several doses (n=4-6) were tested in order to obtain dose-response curves for each compound and brain area. The dose of a compound producing a half-maximal decrease in the Dopa level in the rat brain part was then estimated.
# DA autoreceptors = experiment: Antagonism of γ-butyrolactone (GBL)-induced increase in rat brain DA synthesis rate; type: in vivo
# Method: 3. Antagonism ofγ-butyrolactone (GBL)-induced increase in rat brain DA synthesis rate.
# The administration of GBL in anesthetic doses inhibits nerve impulse flow in central DA neurons, thus resulting in a loss of the impulse-mediated feedback control of tyrosine hydroxylase activity and in a subsequent increase in transmitter synthesis rate (which is determined as described under 2 above). Since the GBL inhibition precludes neuronal feedback actions, antagonistic effects exerted by DA-receptor agonists upon the GBL-induced increase in synthesis are in all probability to be ascribed to their stimulating the DA autoreceptors present in the terminal area of the DA neurons.
# Rats (150-300 g), were given compound 4 subcutaneously at several doses (n=7) followed by GBL (750 mg/kg i.p., 5 min. later) and NSD 1015 (100 mg/kg i.p., 10 min. later). By a subsequent procedure according to 2 above the Dopa levels (representing the DA-synthesis rates) were determined. […] The maximal reversal of the GBL-induced increase in DA synthesis rate was approximately 160% in the limbic system and 110% in corpus striatum.
# [2] = test system: postsynaptic dopaminergic receptor; experiment: Antagonism of apomorphine-induced locomotor stimulation; type: in vivo, rat
# Method: 3. Evidence for postsynaptic dopminergic receptor antagonist activity of (-)-3-PPP.
# The locomotor stimulating action of the dopamine receptor aqonist apomorphine is antagonized by (-)-3-PPP. […] Thus the postsynaptic receptor antagonist activity requires a larger dose than the presynaptic receptor agonist activity, which is evident after doses down to 0.25 mg/kg.
# Further, (-)-3-PPP and racemic 3-PPP have been compared regarding antagonism of apomorphine-induced locomotor stimulation. Either form of 3-PPP was injected subcutaneously in a dose of 8 mg/kg 20 min and apomorphine in a dose of 1 mg/kg subcutaneously 5 min before placing the rats in the Motron for 30 min. Shown are the counts per 30 min., means± s.e.m. and number of experiments (n).
# [3] = test system: dopaminergic receptors (presynaptic and postsynaptic); details: racemic mixtures; cited from earlier work
# [4] = test system: postsynaptic DA receptors; experiment: Emetic activity in dogs; type: in vivo; details: at least at 1 mg/kg i.m.
# Text: It was in fact lacking any measurable temperature effects.
# [5] = test system: rat brain tyrosine hydroxylation; experiment: In-vivo determination of rat brain tyrosine hydroxylation (Dopa formation after NSD 1015, reserpine-pretreated rats); details: sc, reserpine-pretreated rats, Dopa level
# Method: 2. In-vivo determination of rat brain tyrosine hydroxylation.
# The compounds under evaluation were tested biochemically for central DA-receptor (pre- and/or postsynaptic) stimulating activity. The concept of this biochemical screening method is that a DA-receptor agonist will stimulate the receptor and through regulatory feedback systems effect a decline in tyrosine hydroxylase activity and thus a subsequent reduction in the synthesis rate for DA in the presynaptic neuron. Dopa formation, as determined after in-vivo inhibition of the aromatic L-amino acid decarboxylase with NSD 1015 (3-hydroxybenzyl-hydrazine hydrochloride), is taken as an indirect measure of DA synthesis rate.
# as §1
# [6] = test system: postsynaptic DA receptors; experiment: Antagonism of the reserpine-induced "neuroleptic syndrome" in the rat; type: in vivo; details: s.c., different doses, not even at nearly lethal doses
# Text: 1. Antagonism of the reserpine-induced "neuroleptic syndrome" in the rat
# Depletion of the monoamine stores with reserpine brings about a "neuroleptic syndrome" characterized by hypomotility, catalepsy, muscle rigidity, hunch-backed posture as well as a number of other central and peripheral signs of monoamine depletion. This syndrome can be reversed by the administration of drugs that stimulate postsynaptic DA receptors directly or indirectly, e.g. apomorphine, L-Dopa.
# Rats (150-300 g) pretreated with reserpine (10 mg/kg i.p., 6 h before) were given compound 4 subcutaneously at different doses.
# [7] = test system: central postsynaptic DA-receptor; experiment: Locomotor activity in reserpine-pretreated rats, comparison of compound 4 with two known dopaminergic agonists; type: in vivo, rat
# Method: Rats (150-300 g) pretreated with reserpine (10 mg/ kg i.p., 6 h before) were given either phys. saline, compound 4 (100 μmol/kg), N-n-propyl-3-(3,4-dihydroxyphenyl)piperidine (100 μmol/kg) or apomorphine ([…]) subcutaneously and the locomotor activity (accumulated counts 0-60 min.) was quantified by means of Motron boxes (see under 4 above).
compound,measurement,setting,value
"Br.CCCN1CCCC(c2cccc(O)c2)C1 (racemic) [Compound 4, N-n-propyl-3-(3-hydroxyphenyl)piperidine hydrobromide]",postsynaptic DA-receptor activation,[1],selectivity for the autoreceptors
same,% Reversal of GBL-induced increase in dopamine synthesis rate,"DA autoreceptors; 0.5 mg/kg s.c., corpus striatum",0%
same,% Reversal of GBL-induced increase in dopamine synthesis rate,"DA autoreceptors; 0.5 mg/kg s.c., limbic system",58%
same,% Reversal of GBL-induced increase in dopamine synthesis rate,"DA autoreceptors; 1.0 mg/kg s.c., corpus striatum",17%
same,% Reversal of GBL-induced increase in dopamine synthesis rate,"DA autoreceptors; 1.0 mg/kg s.c., limbic system",75%
same,% Reversal of GBL-induced increase in dopamine synthesis rate,"DA autoreceptors; 2.0 mg/kg s.c., corpus striatum",34%
same,% Reversal of GBL-induced increase in dopamine synthesis rate,"DA autoreceptors; 2.0 mg/kg s.c., limbic system",92%
same,% Reversal of GBL-induced increase in dopamine synthesis rate,"DA autoreceptors; 4.0 mg/kg s.c., corpus striatum",51%
same,% Reversal of GBL-induced increase in dopamine synthesis rate,"DA autoreceptors; 4.0 mg/kg s.c., limbic system",109%
same,% Reversal of GBL-induced increase in dopamine synthesis rate,"DA autoreceptors; 8.0 mg/kg s.c., corpus striatum",68%
same,% Reversal of GBL-induced increase in dopamine synthesis rate,"DA autoreceptors; 8.0 mg/kg s.c., limbic system",126%
same,% Reversal of GBL-induced increase in dopamine synthesis rate,"DA autoreceptors; 16.0 mg/kg s.c., corpus striatum",86%
same,% Reversal of GBL-induced increase in dopamine synthesis rate,"DA autoreceptors; 16.0 mg/kg s.c., limbic system",142%
same,Dopa concentration,"DA autoreceptors; 32 mg/kg s.c. + GBL, limbic system, n=5",191 ± 16 ng per g tissue
same,Dopa concentration,"DA autoreceptors; 32 mg/kg s.c. + GBL, striatum, n=5",1063 ± 74 ng per g tissue
same,maximal reversal of the GBL-induced increase in DA synthesis rate,DA autoreceptors; corpus striatum,~110%
same,blockade by haloperidol of the antagonism of GBL-induced increase,DA autoreceptors; haloperidol,the antagonism could be blocked by haloperidol
same,Dopa concentration,"DA autoreceptors; haloperidol 1 mg/kg i.p. + 32 mg/kg compound 4, limbic system, n=3",387 ± 32 ng per g tissue
same,Dopa concentration,"DA autoreceptors; haloperidol 1 mg/kg i.p. + 32 mg/kg compound 4, striatum, n=3",2193 ± 53 ng per g tissue
same,maximal reversal of the GBL-induced increase in DA synthesis rate,DA autoreceptors; limbic system,approximately 160%
same,dose dependence of antagonism of GBL-induced increase in DA synthesis rate,"DA autoreceptors; s.c., several doses",dose-dependently antagonized the GBL-induced increase in DA synthesis rate
same,antagonism of apomorphine locomotor stimulation,[2]; 8 mg/kg s.c.,did not
same,"counts per 30 min., with apomorphine","[2]; 8 mg/kg s.c. + apomorphine 1 mg/kg s.c., means ± s.e.m., n=5",443 ± 26 counts per 30 min.
same,activation of classical postsynaptic dopaminergic receptors,[3],no concomitant activation of the classical postsynaptic dopaminergic receptors could be detected
same,emetic activity,[4],devoid of emetic activity in dogs
same,ED50,"[5]; limbic, read-out: ED50 Limbic",2.7 µmol/kg
same,ED50,"[5]; striatum, read-out: ED50 Striatum",2.7 µmol/kg
same,antagonism of the reserpine-induced syndrome,[6],no antagonism of the reserpine-induced syndrome was observed
same,Motor activity,"[7]; 0-60 min postinj., 100 μmol/kg s.c.",55 ± 4 acc. counts
same,central postsynaptic DA-receptor stimulation / motor response,[7]; s.c.,failed to elicit a motor response that differed more than slightly from control values
